Laboratory results published in patent publication US7026334B1, “Thiazolidine compounds and pharmaceutical compositions exhibiting thrombopoietin receptor agonism” (Shionogi & Co., Ltd., priority 1999, dated 2006).

system: BaF-BO3 cells; assay: Growth of the parental cell line BaF-BO3 not expressing TPOR; type: cell-based; settings: FIG. 3

Compound | proliferation of parental BaF cells bearing no TPOR
TPO: Thrombopoietin, polypeptide cytokine composed of 332 amino acids; Human TPO (hTPO) purchased from R&D Systems | dose not have any ability to support proliferation

biological target: T1, human TPO receptor (hTPOR) (Homo sapiens, UniProt P40238); assay: Proliferation of TPO dependent BaF/hTPOR cells (thrombopoietic activity, WST-1); type: cell-based; settings: 20 hours + 4 hours WST-1, absorbance at 450 nm, ED50 = half concentration of the concentration showing the maximum thrombopoietic activity
T1 construct: expressed in transfected cells; host or cells: BaF-BO3 (murine IL-3 dependent pro-B cell line), giving BaF/hTPOR
T1 sequence (P40238 26-635): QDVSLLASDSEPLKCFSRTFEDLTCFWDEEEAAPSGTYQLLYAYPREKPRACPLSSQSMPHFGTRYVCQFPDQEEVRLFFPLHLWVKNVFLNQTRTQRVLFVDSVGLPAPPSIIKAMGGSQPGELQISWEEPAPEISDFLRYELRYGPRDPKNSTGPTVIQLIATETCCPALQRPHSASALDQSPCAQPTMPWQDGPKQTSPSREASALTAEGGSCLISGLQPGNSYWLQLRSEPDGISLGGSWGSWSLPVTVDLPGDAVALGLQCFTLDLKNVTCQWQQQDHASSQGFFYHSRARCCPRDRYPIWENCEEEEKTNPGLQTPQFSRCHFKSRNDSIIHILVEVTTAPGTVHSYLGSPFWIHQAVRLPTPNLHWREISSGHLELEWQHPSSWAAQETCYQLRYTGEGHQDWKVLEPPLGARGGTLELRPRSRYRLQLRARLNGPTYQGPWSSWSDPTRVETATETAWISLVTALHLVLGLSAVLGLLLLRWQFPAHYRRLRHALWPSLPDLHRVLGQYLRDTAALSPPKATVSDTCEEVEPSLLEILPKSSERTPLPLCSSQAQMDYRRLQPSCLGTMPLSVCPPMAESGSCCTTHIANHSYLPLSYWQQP
Source text: The TPO dependent BaF/hTPOR cell line which was established by introducing human TPO receptor (hTPOR) into BaF-BO3 cells according to Collins et al (J. Cell. Physiol., 137:293-298 (1988)) was used to test the thrombopoietic activity of the present compound (B-17). The DNA sequences and encoded peptide sequences for human hTPOR have been described by Vigon et al (Proc. Natl. Acad. Sci. USA, 89:5640-5644 (1992)). […] BAF/hTPOR cells were maintained in RPMI medium and WEHI-3B conditioned medium as a source of murine interleukin-3 (IL-3). These cells were washed and resuspended in RPMI medium without a source of murine IL-3 and seeded into each well of 96-well microtiter plates at a density of […] cells per well in the absence or presence of various concentration of hTPO or the present compound. After incubation at 37° C. for 20 hours in the 5% CO2 incubator, 10% WST-1 reagent (Takara Biomedicals, Japan) was added to each wells and the cells were further incubated for 4 hours. Table 24 exemplifies the ED50 for tested compounds of the present invention, wherein the ED50 is the half concentration of the concentration showing the maximum thrombopoietic activity

Compound | EC50 [µM]
O=C1NC(=S)SC1=Cc1ccc(C(=O)Nc2nc(-c3ccccc3)cs2)cc1 [Compound A-2] | 0.058
O=C1NC(=S)SC1=Cc1ccc(C(=O)Nc2nc(-c3ccc(-c4ccccc4)cc3)cs2)cc1 [Compound A-7] | 0.06
O=C1NC(=S)S/C1=C\c1ccc(C(=O)Nc2nc(-c3cccs3)cs2)cc1 [Compound A-16] | 0.049
CC(C)OC(=O)c1ccc(-c2csc(NC(=O)c3ccc(/C=C4\SC(=S)NC4=O)cc3)n2)cc1 [Compound A-25] | 0.099
CCCCOC(=O)c1ccc(-c2csc(NC(=O)c3ccc(/C=C4\SC(=S)NC4=O)cc3)n2)cc1 [Compound A-26] | 0.072
CCOC(=O)c1sc(NC(=O)c2ccc(/C=C3\SC(=S)NC3=O)cc2)nc1-c1ccccc1 [Compound A-32] | 0.077
CCc1sc(NC(=O)c2ccc(/C=C3\SC(=S)NC3=O)cc2)nc1-c1ccccc1 [Compound A-38] | 0.047
COC(=O)c1sc(NC(=O)c2ccc(/C=C3\SC(=S)NC3=O)cc2)nc1-c1ccc(F)cc1 [Compound A-42] | 0.072
O=C1NC(=S)S/C1=C\c1ccc(C(=O)Nc2nc(-c3ccc(F)cc3)c(CCCl)s2)cc1 [Compound A-43] | 0.073
Cc1cc(Br)sc1-c1csc(NC(=O)c2ccc(/C=C3\SC(=S)NC3=O)cc2)n1 [Compound A-56] | 0.096
O=C1NC(=S)S/C1=C\c1ccc(C(=O)Nc2nc3c(s2)CSc2ccccc2-3)cc1 [Compound A-59] | 0.084
O=C1NC(=S)S/C1=C\c1ccc(C(=O)Nc2nc(-c3ccc(C(F)(F)F)cc3)cs2)cc1 [Compound A-61] | 0.069
O=C1NC(=S)S/C1=C\c1ccc(C(=O)Nc2nc(-c3cccc(F)c3)cs2)cc1 [Compound A-64] | 0.047
O=C1NC(=S)S/C1=C\c1ccc(C(=O)Nc2nc(-c3ccccc3F)cs2)cc1 [Compound A-67] | 0.05
O=C1NC(=S)S/C1=C\c1ccc(C(=O)Nc2nc(-c3cc(F)c(F)cc3F)cs2)cc1 [Compound A-71] | 0.08
O=C1NC(=S)S/C1=C\c1ccc(C(=O)Nc2nc(-c3ccc(I)cc3)cs2)cc1 [Compound A-73] | 0.07
O=C1NC(=O)C(=Cc2ccc(C(=O)Nc3nc(-c4ccccc4)cs3)cc2)S1 [Compound B-1] | 0.071
O=C1NC(=O)C(=Cc2ccc(C(=O)Nc3nc(-c4ccc(Br)cc4)cs3)cc2)S1 [Compound B-3] | 0.047
Cc1ccc(-c2csc(NC(=O)c3ccc(C=C4SC(=O)NC4=O)cc3)n2)cc1 [Compound B-5] | 0.047
O=C1NC(=O)C(=Cc2ccc(C(=O)Nc3nc(-c4ccc(-c5ccccc5)cc4)cs3)cc2)S1 [Compound B-6] | 0.072
O=C1NC(=O)/C(=C/c2ccc(C(=O)Nc3nc(-c4cccs4)cs3)cc2)S1 [Compound B-15] | 0.077
O=C1NC(=O)/C(=C/c2ccc(C(=O)Nc3nc4c(s3)CCc3ccccc3-4)cc2)S1 [Compound B-21] | 0.084
O=C1NC(=O)C(=Cc2ccc(C(=O)Nc3nc(-c4ccc(Cl)c(Cl)c4)cs3)cc2)O1 [Compound C-1] | 0.068
O=C1NC(=O)C(=Cc2ccc(C(=O)Nc3nc(-c4ccc(Cl)c(Cl)c4)cs3)s2)S1 [Compound E-2] | 0.062

The next lines start with the values.

EC50 [µM] | Compound
0.045 | Cc1ccc(-c2csc(NC(=O)c3ccc(C=C4SC(=S)NC4=O)cc3)n2)cc1 [Compound A-6]
0.041 | O=C1NC(=S)S/C1=C\c1ccc(C(=O)Nc2nc(-c3ccc(Br)s3)cs2)cc1 [Compound A-21]
0.037 | O=C1NC(=O)C(=Cc2ccc(C(=O)Nc3nc(-c4ccc(Cl)cc4)cs3)cc2)S1 [Compound B-4]
0.036 | O=C1NC(=S)SC1=Cc1ccc(C(=O)Nc2nc(-c3ccc(Br)cc3)cs2)cc1 [Compound A-4]
0.035 | O=C1NC(=S)S/C1=C\c1ccc(C(=O)Nc2nc3c(s2)CCc2ccccc2-3)cc1 [Compound A-49]
0.035 | O=C1NC(=S)S/C1=C\c1ccc(C(=O)Nc2nc(-c3cccc(Br)c3)cs2)cc1 [Compound A-72]
0.031 | CC(C)(C)c1ccc(-c2csc(NC(=O)c3ccc(/C=C4\SC(=S)NC4=O)cc3)n2)cc1 [Compound A-11]
0.029 | O=C1NC(=S)S/C1=C\c1ccc(C(=O)Nc2nc(-c3ccc(F)c(F)c3)cs2)cc1 [Compound A-20]
0.027 | Cc1sc(NC(=O)c2ccc(/C=C3\SC(=S)NC3=O)cc2)nc1-c1ccc(Cl)cc1 [Compound A-37]
0.026 | O=C1NC(=S)S/C1=C\c1ccc(C(=O)Nc2nc(-c3ccc(Cl)s3)cs2)cc1 [Compound A-15]
0.026 | O=C1NC(=S)S/C1=C\c1ccc(C(=O)Nc2nc3c(s2)CCCc2ccccc2-3)cc1 [Compound A-50]
0.023 | O=C1NC(=S)S/C1=C\c1ccc(C(=O)Nc2nc(-c3cccc(C(F)(F)F)c3)cs2)cc1 [Compound A-53]
0.023 | O=C1NC(=O)/C(=C/c2ccc(C(=O)Nc3nc(-c4ccc(Cl)s4)cs3)cc2)S1 [Compound B-14]
0.022 | O=C1NC(=S)SC1=Cc1ccc(C(=O)Nc2nc(-c3ccc(Cl)cc3)cs2)cc1 [Compound A-5]
0.02 | O=C1NC(=S)S/C1=C\c1ccc(C(=O)Nc2nc(-c3ccc(F)cc3F)cs2)cc1 [Compound A-70]
0.02 | O=C1NC(=O)/C(=C/c2ccc(C(=O)Nc3nc(-c4ccc(Cl)c(Cl)c4)cs3)cc2)S1 [Compound B-16]
0.017 | O=C1NC(=S)SC1=Cc1ccc(C(=O)Nc2nc(-c3ccc(F)cc3)cs2)cc1 [Compound A-3]
0.016 | O=C1NC(=S)S/C1=C\c1ccc(C(=O)Nc2nc(-c3cccc(OC(F)(F)F)c3)cs2)cc1 [Compound A-63]
0.016 | O=C1NC(=O)/C(=C/c2ccc(C(=O)Nc3nc(-c4ccc(F)c(F)c4)cs3)cc2)S1 [Compound B-18]
0.015 | O=C1NC(=S)S/C1=C\c1ccc(C(=O)Nc2nc(-c3ccc([N+](=O)[O-])cc3)cs2)cc1 [Compound A-14]
0.012 | O=C1NC(=S)S/C1=C\c1ccc(C(=O)Nc2nc(-c3ccc(Cl)c(Cl)c3)cs2)cc1 [Compound A-1]
0.011 | COC(=O)c1ccc(-c2csc(NC(=O)c3ccc(/C=C4\SC(=S)NC4=O)cc3)n2)cc1 [Compound A-12]
0.011 | O=C1NC(=O)C(=Cc2ccc(C(=O)Nc3nc(-c4ccc(F)cc4)cs3)cc2)S1 [Compound B-2]
